Source: US11952387B2, “Bicyclic heteroaromatic ring derivative” (priority 2018, dated 2024)

Tested on: HRV14
Assay: Inhibitory activity against human rhinovirus infection and replication (quantitative real-time PCR)
Type: cell-based
Conditions: Human rhinovirus sp., MRC5; 100 nmol/L test compound; MRC-5 cells infected with HRV14 at MOI=0.2; 48 hours; viral load normalized to 18s rRNA; read-out: Percent Inhibition
In short: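 Near-confluent MRC-5 cells were pretreated 30 min with compound at 100 or 1000 nmol/L, then infected with HRV14 (MOI 0.2) in compound-containing medium (2% FBS, 30 mmol/L MgCl2) and cultured 48 h at 35 °C. HRV14 RNA by qRT-PCR, normalized to 18S rRNA; percent inhibition versus untreated infected cells.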

SMILES | inhibition at 0.1 µM [%]
Cc1nc2sc(C(C)(C)O)cn2c1-c1ccc(C(F)(F)F)c(S(=O)(=O)N[C@H]2CC[C@@H](O)CC2)c1 [Example 1-19] | > 80
CNC(=O)C(C)(C)S(=O)(=O)c1cc(-c2c(C)nc3sc(C(C)(C)O)nn23)ccc1OC [Example 8-1] | 50 to 80
COc1ccc(-c2c(C)nc3sc(C(C)(C)O)nn23)cc1S(=O)(=O)C1CC2(COC2)C1 [Example 2-65] | > 80
Cc1nc2sc(C(C)(C)O)nn2c1-c1ccc(C(F)(F)F)c(S(=O)(=O)N[C@]2(C)C[C@H](O)C2)c1 [Example 2-19] | > 80
COc1ccc(-c2c(C)nc3sc(C(C)(C)O)nn23)cc1S(=O)(=O)C(C)(C)CO [Example 4-1] | > 80
COc1ccc(-c2c(C)nc3sc(C(C)(C)O)nn23)cc1S(=O)(=O)C1CN(S(C)(=O)=O)C1 [Example 9-2] | 50 to 80
Cc1ccc(-c2c(C)nc3sc(C(C)(C)O)nn23)cc1S(=O)(=O)CC(C)(C)O [Example 2-39] | > 80
COc1ccc(-c2c(C)nc3sc(C(C)(C)O)nn23)cc1S(=O)(=O)Cc1ccncc1 [Example 2-95] | 50 to 80
COc1ccc(-c2c(C)nc3sc(C(C)(C)O)cn23)cc1S(=O)(=O)Nc1cccc(O)c1 [Example 2-80] | ≤ 50
Cc1nc2sc(C(C)(C)O)nn2c1-c1ccc(C(F)(F)F)c(S(=O)(=O)NC2(C(C)(C)O)CC2)c1 [Example 3-2] | > 80
Cc1nc2sc(C(C)(C)O)nn2c1-c1ccc(C(F)(F)F)c(S(=O)(=O)NC2(CO)CC2)c1 [Example 2-20] | > 80
COc1ccc(-c2c(C)nc3sc(C(C)(C)C(=O)N(C)C)nn23)cc1S(=O)(=O)N[C@H]1CC[C@@H](O)CC1 [Example 19] | > 80
COc1ccc(-c2c(C)nc3sc(C(C)(C)O)nn23)cc1S(=O)(=O)Nc1ccc(C#N)cc1 [Example 21-20] | ≤ 50
COc1ccc(-c2c(C)nc3sc(C(C)(C)O)nn23)cc1S(=O)(=O)C(C)(C)C(N)=O [Example 6-1] | 50 to 80
COc1c(F)cc(-c2c(C)nc3sc(C(C)(C)O)nn23)cc1S(=O)(=O)NC(C)(C)CO [Example 2-29] | > 80
Cc1nc2sc(C(C)(C)O)nn2c1-c1ccc(C(F)(F)F)c(S(=O)(=O)[C@H]2C[C@H](O)C2)c1 [Example 2-47] | > 80
COc1ccc(-c2c(C)nc3sc(C(C)(C)O)nn23)cc1S(=O)(=O)[C@H]1C[C@](C)(C(C)(C)O)C1 [Example 2-73] | > 80
Cc1nc2sc(C(C)(C)O)nn2c1-c1ccc(C(F)(F)F)c(S(=O)(=O)C2CN(CCO)C2)c1 [Example 12-2] | 50 to 80
COc1ccc(-c2c(C)nc3sc(C(C)(C)O)nn23)cc1S(=O)(=O)C1CN(C(C)=O)C1 [Example 10-2] | ≤ 50
COc1ccc(-c2c(C)nc3sc(C(C)(C)O)nn23)cc1S(=O)(=O)N[C@H]1CC[C@@](C)(O)CC1 [Example 21-13] | ≤ 50
CC(=O)N1CC(S(=O)(=O)c2cc(-c3c(C)nc4sc(C(C)(C)O)nn34)ccc2C(F)(F)F)C1 [Example 10-1] | > 80
Cc1nc2sc(C(C)(C)O)nn2c1-c1ccc(OC(F)(F)F)c(S(=O)(=O)N[C@H]2CC[C@@H](O)CC2)c1 [Example 1-17] | > 80
COc1ccc(NS(=O)(=O)c2cc(-c3c(C)nc4sc(C(C)(C)O)cn34)ccc2OC)cc1 [Example 2-79] | 50 to 80
Cc1nc2sc(C(C)(C)O)cn2c1-c1ccc(Cl)c(S(=O)(=O)N[C@H]2CC[C@@H](O)CC2)c1 [Example 1-2] | ≤ 50
COc1ccc(-c2c(C)nc3sc(C(C)(C)OC)nn23)cc1S(=O)(=O)N[C@H]1CC[C@H](O)CC1 [Example 1-28] | > 80
COc1ccc(-c2c(C)nc3sc(C(C)(C)O)nn23)cc1S(=O)(=O)CC(C)(O)CO (stereo not drawn) [Example 2-59] | ≤ 50

SMILES | inhibition at 0.1 µM [%]
Cc1nc2sc(C(C)C)nn2c1-c1ccc(Cl)c(S(=O)(=O)N[C@H]2CC[C@@H](O)CC2)c1 [Example 1-9] | > 80
Cc1nc2sc(C(C)(C)O)nn2c1-c1ccc(C(F)(F)F)c(S(=O)(=O)C(C)(C)C(=O)O)c1 [Example 5] | ≤ 50
COc1ccc(-c2c(C)nc3sc(C(C)(C)O)nn23)cc1S(=O)(=O)Nc1cccnc1 [Example 2-85] | ≤ 50
COC(=O)C(C)(C)S(=O)(=O)c1cc(-c2c(C)nc3sc(C(C)(C)O)nn23)ccc1OC [Example 1-41] | 50 to 80
COc1ccc(-c2c(C)nc3sc(C(C)(C)O)nn23)cc1S(=O)(=O)[C@]1(C)C[C@H](O)C1 [Example 2-75] | ≤ 50
COc1ccc(-c2c(C)nc3sc(C(C)(C)C)cn23)cc1S(=O)(=O)N[C@H]1CC[C@@H](O)CC1 [Example 1-49] | > 80
COc1ccc(-c2c(C)nc3sc(C(C)(C)O)nn23)cc1S(=O)(=O)[C@@H]1CC[C@@H](O)C1 [Example 2-62] | ≤ 50
COc1ccc(-c2c(C)nc3sc(C(C)(C)O)nn23)cc1S(=O)(=O)C(C)(C)C#N [Example 7-1] | > 80
COc1ccc(-c2c(C)nc3sc(C(C)(C)O)nn23)cc1S(=O)(=O)Cc1ccccc1 [Example 2-91] | > 80
COc1c(F)cc(-c2c(C)nc3sc(C(O)(C4CC4)C4CC4)nn23)cc1S(=O)(=O)C(C)(C)C(N)=O [Example 6-4] | > 80
Cc1nc2sc(C(C)(C)O)nn2c1-c1ccc(C(F)(F)F)c(S(=O)(=O)N[C@H]2C[C@H](O)C2)c1 [Example 2-16] | > 80
COc1ccc(-c2c(C)nc3sc(C(C)C)cn23)cc1S(=O)(=O)N[C@H]1CC[C@@H](O)CC1 [Example 1-46] | > 80
COc1ccc(-c2c(C)nc3sc(C(C)(C)O)nn23)cc1S(=O)(=O)C1CCC(=O)CC1 [Example 13] | ≤ 50
COc1ncc(-c2c(C)nc3sc(C(C)(C)O)nn23)cc1S(=O)(=O)N[C@H]1CC[C@@H](O)CC1 [Example 1-21] | ≤ 50
COc1ccc(-c2c(C)nc3sc(C(C)(C)O)nn23)cc1S(=O)(=O)[C@H]1C[C@@H]1C(C)(C)O [Example 2-78] | ≤ 50
Cc1nc2sc(C(C)(C)C)cn2c1-c1ccc(Cl)c(S(=O)(=O)N[C@H]2CC[C@@H](O)CC2)c1 [Example 1-4] | > 80
COc1ccc(-c2c(C)nc3sc(C(C)(C)O)nn23)cc1S(=O)(=O)CC1(O)COC1 [Example 2-40] | ≤ 50
Cc1nc2sc(C(C)(C)O)nn2c1-c1ccc(C(F)(F)F)c(S(=O)(=O)C2CN(C(N)=O)C2)c1 [Example 11] | ≤ 50
COc1ncc(-c2c(C)nc3sc(C(C)(C)O)nn23)cc1S(=O)(=O)N[C@H]1CC[C@H](O)CC1 [Example 1-24] | ≤ 50
COc1ccc(-c2c(C)nc3sc(C(O)(C4CC4)C4CC4)nn23)cc1S(=O)(=O)C1CN(C(C)=O)C1 [Example 10-3] | > 80
COc1ccc(-c2c(C)nc3sc(C(C)(C)O)nn23)cc1S(=O)(=O)NC[C@H]1C[C@@H](O)C1 [Example 21-3] | 50 to 80
Cc1nc2sc(C(C)(C)O)nn2c1-c1ccc(C(F)(F)F)c(S(=O)(=O)C(C)(C)C(N)=O)c1 [Example 6-2] | ≤ 50
COc1ccc(-c2c(C)nc3sc(C(C)(C)O)nn23)cc1S(=O)(=O)NC1(CO)CC(F)(F)C1 [Example 21-15] | > 80
Cc1nc2sc(C(C)(C)O)nn2c1-c1ccc(C(F)(F)F)c(S(=O)(=O)CC2(C)COC2)c1 [Example 2-26] | > 80
COc1ccc(-c2c(C)nc3sc(C(C)(C)O)nn23)cc1S(=O)(=O)C1CCC2(CC1)OCCO2 [Example 2-68] | 50 to 80
